Target: T1, MC4R (Homo sapiens, UniProt P32245)
T1 construct: expressed in transfected cells; host or cells: HEK (Human Embryonic Kidney) permanent expression cell line HEK MC4R-Luc, with CRE-LUC reporter
Experiment: MCR agonistic activity (luciferase assay / cAMP accumulation assay) in HEK MC4R-Luc cells
Type: cell-based
Conditions: agonistic activity to MC4R; ranges given; read-out: EC50 value in the range
Procedure: Physiological activity of the compounds of the present invention was assessed by measuring agonistic activity as well as binding activity for melanocortin receptors (MCR) according to methods A and B explained as follows.
As one of the methods to measure MCR agonistic activity of the compound according to the present invention, the expression level of a marker gene (for example, luciferase) which increases proportionally according to the increase of cAMP content in the cell, was measured.
First, permanent expression HEK (Human Embryonic Kidney) cell lines (HEK MC1R-Luc, MC3R-Luc, MC4R-Luc or MC5R-Luc) expressing the MCR gene of each subtype together with luciferase gene (CRE-LUC) under the control of CRE (cAMP Response Element) were constructed. The above cell lines were incubated in an incubator with 6% CO2 atmosphere at 37° C. using selection medium, DMEM (Dulbecco's Modified Eagles Medium) containing 10% heat-inactivated fetal bovine serum (Gibco/BRL), 100 unit/ml, penicillin (Gibco/BRL), 100 unit/ml streptomycin (Gibco/BRL), and 200 μg/ml geneticin (G418) (Gibco/BRL). […] After allowing the treated cells to be at room temperature for 15 minutes, luminescence was measured for each well by using luminometer (Victor). The level of luminescence induced by the stepwise-diluted agonist was converted to relative % value to those by the treatment of 10 μM NDP-MSH. […]
As another method to measure MCR agonistic activity of the compound according to the present invention, an increase of cAMP amount in the cell was measured.
First, permanent expression HEK (Human Embryonic Kidney) cell lines (HEK MC1R-Luc, MC3R-Luc, MC4R-Luc or MC5R-Luc) expressing the MCR gene of each subtype were plated onto each well of 24-well culture plates for Luminometer (Costar) with a concentration of 2×10^5 cell in 1 ml culture medium for each well, and then incubated in an incubator with 6% CO2 atmosphere at 37° C. for 24 hours. […] Then, the cAMP amount in each cell was measured using Amersham cAMP assay Kit (TRK432). […]

T1 sequence (P32245 whole entry, species assumed): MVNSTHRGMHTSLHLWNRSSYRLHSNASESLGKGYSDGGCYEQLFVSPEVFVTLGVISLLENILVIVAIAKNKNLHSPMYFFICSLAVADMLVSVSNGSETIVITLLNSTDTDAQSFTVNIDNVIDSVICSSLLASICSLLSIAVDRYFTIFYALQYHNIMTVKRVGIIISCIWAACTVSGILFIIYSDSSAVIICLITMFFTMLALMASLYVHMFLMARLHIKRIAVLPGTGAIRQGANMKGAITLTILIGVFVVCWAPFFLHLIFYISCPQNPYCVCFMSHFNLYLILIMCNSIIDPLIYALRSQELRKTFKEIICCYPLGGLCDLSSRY

EC50	Compound
100 to 1000 nM	CC(=O)N(C1CCC(F)(F)CC1)[C@H]1C[C@@H](C(=O)N2CCN(C)CC2)N(C(=O)[C@@H]2CN(C(C)(C)C)C[C@H]2c2ccc(Cl)cc2)C1 [Example 27, N-{(3S,5S)-1-{[(3S,4R)-1-tert-butyl-4-(4-chlorophenyl)pyrrolidin-3-yl]carbonyl}-5-[(4-methylpiperazin-1-yl)carbonyl]pyrrolidin-3-yl}-N-(4,4-difluorocyclohexyl)acetamide]
10 to 100 nM	CC(C)C(=O)N(c1ccc(F)cc1F)[C@H]1C[C@@H](C(=O)N2CCN(C)CC2)N(C(=O)[C@@H]2CN(C(C)(C)C)C[C@H]2c2ccc(Cl)cc2)C1 [Example 79, N-{(3S,5S)-1-{[(3S,4R)-1-tert-butyl-4-(4-chlorophenyl)pyrrolidin-3-yl]carbonyl}-5-[(4-methylpiperazin-1-yl)carbonyl]pyrrolidin-3-yl}-N-(2,4-difluorophenyl)-2-methylpropanamide]
100 to 1000 nM	CN1CCN(C(=O)[C@@H]2C[C@H](N(C(=O)c3ccco3)c3ccc(F)cc3F)CN2C(=O)[C@@H]2CN(C(C)(C)C)C[C@H]2c2ccc(F)cc2F)CC1 [Example 84, N-{(3S,5S)-1-{[(3S,4R)-1-tert-butyl-4-(2,4-difluorophenyl)pyrrolidin-3-yl]carbonyl}-5-[(4-methylpiperazin-1-yl)carbonyl]pyrrolidin-3-yl}-N-(2,4-difluorophenyl)-2-furamide]

— patent US8288386B2, “Melanocortin receptor agonists” (LG Life Sciences Ltd., priority 2008, dated 2012)
